The test system of one assay is morphine analgesia. Nature of the assay: Increase in analgesia of morphine, Tail Flick Test (Experiment 1). In kind it is in vivo, rats. Conditions: for percentage variation of latency of pain sensation / M (10-90) ± SE, mean percentage variation of latency: compound 10 mg/kg i.p. + morphine 2 mg/kg; for M (10-90) ± SE, mean percentage variation of latency: mean 10-90 min; for Power ratio with respect to morphine alone: rat, in vivo. The method, then: Experiment No: 1 Increase in analgesia of analgesic-narcotic drugs in rats by the Tail Flick Test
The method is that described by Harris et al. (J. Pharmacol. Exp. Ther. 143 (1964) 141-148).
Male rats are used having a weight of about 150-200 g which have not fasted. A point on the tail is chosen and irradiated by a heat source (75° C.) and the time (in seconds) for which the animal remains without moving its tail is measured.
A maximum period of time of 8 seconds under the heat source is chosen, after which the animal is, in any case, removed to avoid tissue damage. The measurement is effected before (controls) and after treatment with the drugs.
The percentage variation is calculated for each individual animal by the following formula: [formula] The measurements were carried out 10, 20, 30, 45, 60 and 90 minutes after treatment with the analgesics.
On the technique in general: In hot-plate and tail-flick tests a longer latency is read as antinociception.

The subject of assay [1] is CCK-8 induced contraction of guinea pig gall bladder. Nature of the assay: Anti-CCK activity on gall bladder strips in vitro. Particulars: CCK-8 10 ng/ml. The method, then:
ANTI-CCK ACTIVITY ON GUINEA PIG GALL BALDDERS IN VITRO
A longitudinal strip of guinea pig gall bladder was placed in a bath of isolated members in the presence of Krebs at a temperature of 32° C. with continuous oxygenation with an oxygen-CO2 mixture (95-5V/V).
The isometric contractions were detected by means of a force transducer and recorded.
The gall bladder was made to contract with the use of a 10 ng/ml concentration of CCK-8; the antagonistic activity of the compounds of the invention on the contracting effect of the CCK was determined with the use of different concentrations and the ED 50 value, that is the concentration in μg/ml of a compound which could antagonise 50% of the contracting effect of the CCK, was determined.

In assay [2] the test system is activity of analgesic drugs. Nature of the assay: Hot-plate test, potentiation of analgesic drugs (Experiment 2). It is filed as in vivo, rats. The method, then:
Experiment No. 2: Hot-plate test
The method is that described by Eddy et al. (J. Pharmac. Exp. Ther. 107, 385 (1953)).
Groups of five male rats having a weight of about 150 g, and which have not fasted, are used.
The animals are placed on a metal plate on the bottom of a transparent cylinder, which is heated to 55°±1° C. by an azeotropic boiling mixture (acetone-ethyl formate 1:1).
The reaction time is defined as the interval which passes between the moment at which the animal is placed on the hot-plate and the moment at which it either licks its feet or tries to jump out of the cylinder. The control reaction time is measured 10 and 5 minutes before administration of the drugs and 10, 20, 30, 45, 60 and 90 minutes afterwards. The animals are left on the plate for a maximum period of 30 seconds.
The response to the administration of the product is considered positive if at least a doubling of the normal reaction time is seen. The results obtained are given in Tables 2a and 2b which record the groups treated, the doses administered and the stay times on the plate expressed as the number of positive responses over the number treated.

`CCCN(CCC)C(=O)C(CCC(=O)O)NC(=O)c1ccccc1Cl` (stereo not shown) [Compound C-1]: the “percentage variation of latency of pain sensation” value amounted to 65.3 ± 18.0% with morphine analgesia (10'); 67.2% in the assay with morphine analgesia (20'); 66.3 ± 14.0% with morphine analgesia (30'); 82.7 ± 11.0% in the assay on morphine analgesia (45'); 68.8 ± 17.0% in the assay with morphine analgesia (60'); 59.3 ± 25.0% in the assay on morphine analgesia (90'). The “M (10-90) ± SE, mean percentage variation of latency” value with morphine analgesia turned out to be 68.2%. Besides, in the assay with morphine analgesia, the “Power ratio with respect to morphine alone” value (“Power ratio” for short) worked out at 2.29. The “ED50 (concentration antagonising 50% of contracting effect of CCK-8)” value in assay [1] was above 200 µg/mL.
Take `CCCN(CCC)C(=O)C(CCC(=O)O)NC(=O)c1cccc(Cl)c1` (stereo not shown) [Compound C-2]: the “percentage variation of latency of pain sensation” value with morphine analgesia (10') was 27.8 ± 13.0%; in the assay on morphine analgesia (20'), 43.8 ± 25.0%; in the assay with morphine analgesia (30') it was 67.5 ± 20.0%; with morphine analgesia (45'), 64.2%; in the assay on morphine analgesia (60') it was 74.4 ± 16.0%; in the assay on morphine analgesia (90'), 57.3 ± 19.0%. For the same compound, the “M (10-90) ± SE, mean percentage variation of latency” value in the assay with morphine analgesia was found to be 55.8 ± 17.0%. Also, the “Power ratio” value in the assay on morphine analgesia was 1.87. Also, in assay [1], the “ED50 (concentration antagonising 50% of contracting effect of CCK-8)” value is above 200 µg/mL.
Consider `CCCN(CCC)C(=O)C(CCC(=O)O)NC(=O)c1ccc(Cl)cc1` (stereo not shown) [Compound C-3], for which the “percentage variation of latency of pain sensation” value with morphine analgesia (10') is listed as 44.4%; in the assay on morphine analgesia (20'), 83.7 ± 16.3%; in the assay on morphine analgesia (30'), 77.8 ± 17.1%; with morphine analgesia (45'), 46.4 ± 24.5%; in the assay on morphine analgesia (60'), 73.6 ± 17.7%; with morphine analgesia (90') it was 45.8 ± 22.8%. The “M (10-90) ± SE, mean percentage variation of latency” value in the assay on morphine analgesia worked out at 61.9 ± 18.2%. The “Power ratio” value in the assay with morphine analgesia came to 2.10. The “ED50 (concentration antagonising 50% of contracting effect of CCK-8)” value in assay [1] is 34.4 µg/mL.
With `CCCN(CCC)C(=O)C(CCC(=O)O)NC(=O)c1ccc(Cl)c(Cl)c1` (stereo not shown) [Compound C-5], the “percentage variation of latency of pain sensation” value in the assay with morphine analgesia (10') was determined as 34.5 ± 17.4%; in the assay on morphine analgesia (20'), 21.4 ± 16.0%; in the assay with morphine analgesia (30'), 59.5 ± 21.1%; in the assay with morphine analgesia (45') it was 84.7%; with morphine analgesia (60'), 63.9 ± 18.5%; in the assay on morphine analgesia (90'), 40.1 ± 23.9%. In addition, the “M (10-90) ± SE, mean percentage variation of latency” value with morphine analgesia amounted to 50.7 ± 23.0%. In the assay on morphine analgesia, the “Power ratio” value is given as 1.70. In addition, the “ED50 (concentration antagonising 50% of contracting effect of CCK-8)” value in assay [1] turned out to be 4.2 µg/mL.
As for `CCCCCCN(CCCCCC)C(=O)C(CCC(=O)O)NC(=O)c1ccc(Cl)c(Cl)c1` (stereo not shown) [Compound C-8], the “percentage variation of latency of pain sensation” value in the assay with morphine analgesia (10') was determined as 67.4 ± 20.5%; in the assay on morphine analgesia (20') it was 74.1 ± 15.8%; with morphine analgesia (30'), 80.0 ± 12.9%; in the assay with morphine analgesia (45') it was 85.9 ± 14.1%; in the assay on morphine analgesia (60'), 87.1%; with morphine analgesia (90'), 60.4 ± 17.3%. The “M (10-90) ± SE, mean percentage variation of latency” value in the assay with morphine analgesia is 75.8 ± 10.6%. Further, the “Power ratio” value with morphine analgesia is on record as 2.54. For the same compound, the “ED50 (concentration antagonising 50% of contracting effect of CCK-8)” value in assay [1] was 0.93 µg/mL.
In the case of `CCCCN(CCCC)C(=O)C(CCC(=O)O)NC(=O)c1cc(Cl)cc(Cl)c1` (stereo not shown) [Compound C-9], the “percentage variation of latency of pain sensation” value in the assay on morphine analgesia (10') is on record as 67.6 ± 11.0%; in the assay on morphine analgesia (20'), 65.8%; in the assay on morphine analgesia (30'), 71.9 ± 17.5%; with morphine analgesia (45') it was 59.1 ± 20.0%; in the assay with morphine analgesia (60'), 52.1 ± 22.0%; in the assay on morphine analgesia (90'), 40.4 ± 18.0%. The “M (10-90) ± SE, mean percentage variation of latency” value with morphine analgesia worked out at 59.5 ± 11.6%. The “Power ratio” value with morphine analgesia is 2.00. In assay [1], the “ED50 (concentration antagonising 50% of contracting effect of CCK-8)” value was found to be 7.40 µg/mL.
Consider `CCCCN(CCCC)C(=O)C(CCC(=O)O)NC(=O)c1ccc(Cl)cc1Cl` (stereo not shown) [Compound C-10], for which the “percentage variation of latency of pain sensation” value stood at 56.9 ± 25.8% in the assay with morphine analgesia (10'); 66.4 ± 21.4% in the assay with morphine analgesia (20'); 72.9% with morphine analgesia (30'); 70.1 ± 18.5% with morphine analgesia (45'); 66.2 ± 21.3% with morphine analgesia (60'); 63.2 ± 23.4% with morphine analgesia (90'). Further, the “M (10-90) ± SE, mean percentage variation of latency” value in the assay on morphine analgesia was 66.0 ± 5.6%. Further, the “Power ratio” value in the assay with morphine analgesia came out at 2.21. Besides, the “ED50 (concentration antagonising 50% of contracting effect of CCK-8)” value in assay [1] came out at 43.7 µg/mL.
Turning to `CCC(=O)C(CC(C)N(C)C)(c1ccccc1)c1ccccc1` (stereo not shown) [Methadone, reference compound], the TOTAL positives in assay [2] (methadone 1 mg/kg i.p. alone) came to 8 X/30. For the same compound, the “positive responses over number treated” value in assay [2] (methadone 1 mg/kg i.p. alone, 10') is 1/5; in assay [2] (methadone 1 mg/kg i.p. alone, 20'), 2/5; in assay [2] (methadone 1 mg/kg i.p. alone, 30'), 1/5; in assay [2] (methadone 1 mg/kg i.p. alone, 45') it was 2/5; in assay [2] (methadone 1 mg/kg i.p. alone, 60') it was 1/5; in assay [2] (methadone 1 mg/kg i.p. alone, 90') it was 1/5.
Consider `CCCCC1C(=O)N(c2ccccc2)N(c2ccc(O)cc2)C1=O` (stereo not shown) [Oxyphenylbutazone, reference compound], for which, in assay [2] (oxyphenylbutazone 50 mg/kg i.p. alone), the TOTAL positives is 7 x/30. For the same compound, the “positive responses over number treated” value in assay [2] (oxyphenylbutazone 50 mg/kg i.p. alone, 10') was 2/5; in assay [2] (oxyphenylbutazone 50 mg/kg i.p. alone, 20') it was 1/5; in assay [2] (oxyphenylbutazone 50 mg/kg i.p. alone, 30'), 2/5; in assay [2] (oxyphenylbutazone 50 mg/kg i.p. alone, 45') it was 2/5; in assay [2] (oxyphenylbutazone 50 mg/kg i.p. alone, 60'), 0/5; in assay [2] (oxyphenylbutazone 50 mg/kg i.p. alone, 90'), 0/5.
On to Propoxyphene [reference compound], for which the TOTAL positives in assay [2] (propoxyphene 10 mg/kg i.p. alone) was 8 X/30; in assay [2] (propoxyphene 15 mg/kg i.p. alone), 12 x/30. Further, the “positive responses over number treated” value is 1/5 in assay [2] (propoxyphene 10 mg/kg i.p. alone, 10'); 2/5 in assay [2] (propoxyphene 10 mg/kg i.p. alone, 20'); 2/5 in assay [2] (propoxyphene 10 mg/kg i.p. alone, 30'); 2/5 in assay [2] (propoxyphene 10 mg/kg i.p. alone, 45'); 1/5 in assay [2] (propoxyphene 10 mg/kg i.p. alone, 60'); 0/5 in assay [2] (propoxyphene 10 mg/kg i.p. alone, 90'). Moreover, the “positive responses over number treated” value in assay [2] (propoxyphene 15 mg/kg i.p. alone, 10') was 2/5; in assay [2] (propoxyphene 15 mg/kg i.p. alone, 20'), 2/5; in assay [2] (propoxyphene 15 mg/kg i.p. alone, 30'), 3/5; in assay [2] (propoxyphene 15 mg/kg i.p. alone, 45'), 3/5; in assay [2] (propoxyphene 15 mg/kg i.p. alone, 60'), 1/5; in assay [2] (propoxyphene 15 mg/kg i.p. alone, 90'), 3/5.

For the origin of these results see US4791215A, “Derivatives of glutamic acid and aspartic acid” (priority 1984, dated 1988).
